From BindingDB's records for doi:10.1111/j.1476-5381.1995.tb15071.x (Vrije Universiteit, 1995)

Target: Sodium-dependent serotonin transporter (Cavia porcellus, UniProt O35899)
Sequence (O35899 whole entry): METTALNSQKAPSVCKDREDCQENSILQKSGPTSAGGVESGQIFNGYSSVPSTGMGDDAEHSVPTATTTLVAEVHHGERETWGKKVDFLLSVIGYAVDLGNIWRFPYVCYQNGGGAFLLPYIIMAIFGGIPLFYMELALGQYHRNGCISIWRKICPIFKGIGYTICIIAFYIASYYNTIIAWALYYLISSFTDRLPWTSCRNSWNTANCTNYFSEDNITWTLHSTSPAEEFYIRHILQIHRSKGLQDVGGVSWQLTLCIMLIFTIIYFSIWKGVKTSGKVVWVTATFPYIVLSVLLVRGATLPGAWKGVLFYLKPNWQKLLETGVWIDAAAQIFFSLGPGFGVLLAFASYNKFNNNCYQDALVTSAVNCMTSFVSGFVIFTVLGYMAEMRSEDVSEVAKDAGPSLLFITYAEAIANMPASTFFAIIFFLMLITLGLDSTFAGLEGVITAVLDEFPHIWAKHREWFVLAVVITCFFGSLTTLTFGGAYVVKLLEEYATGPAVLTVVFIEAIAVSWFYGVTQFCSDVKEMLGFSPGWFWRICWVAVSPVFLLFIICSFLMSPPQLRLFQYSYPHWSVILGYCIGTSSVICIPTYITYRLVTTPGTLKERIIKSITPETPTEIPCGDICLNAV

With S=C(NC1CCCCC1)N1CCC(c2cnc[nH]2)CC1 as the compound, how does the Ki read?
Its Ki is over 10 µM.
